Assay results reported in patent publication US6352998B2, “Pharmaceutical compositions” (Novartis AG, priority 1997, dated 2002).

System: chronic plaque psoriasis
Experiment: Topical treatment of chronic plaque psoriasis in humans, once a day
Format: in vivo
Details: topical application of 0.01 to 1% w/w once a day

| Compound | Efficacy in the treatment of chronic plaque psoriasis |
| --- | --- |
| CC[C@@H]1/C=C(\C)C[C@H](C)C[C@H](OC)[C@H]2O[C@@](O)(C(=O)C(=O)N3CCCC[C@H]3C(=O)O[C@H](/C(C)=C/[C@@H]3CC[C@@H](O)[C@H](OC)C3)[C@H](C)[C@@H](O)CC1=O)[C@H](C)C[C@@H]2OC (relative stereo) [Compound 3, [3S-[3R*[E(1S*,3S*,4S*)],4S*,5R*,8S*,9E,12R*,14R*,15S*,16R*,18S*,-19S*,26aR*]]-5,6,8,11,12,13,14,15,16,17,18,19,24,25,26,26a-hexadecahydro-5,19-dihydroxy-3-[2-(4-hydroxy-3-methoxy-cyclohexyl)-1-methylethenyl)]-14,16-dimethoxy4,10,12,18,-tetramethyl-8-ethyl-15,19-epoxy-3H-pyrido[2,1-c][1,4]oxaazacyclotricosine-1,7,20,21(4H,23H)-tetrone] | effective |
| [3S-[3R*[E(1S*,3S*,4S*)],4S*,5R*,8S*,9E,12R*,-14R*,15S*,16R*,18S*,19S*,26aR*]]-5,6,8,11,12,13,14,15,16,17,18,19,24,25,26,26a-hexadecahydro-5,19-dihydroxy-3-(3-hydroxymethylcyclopentyl)-1-methylethenyl)]-14,16-dimethoxy-4,10,12,18,-tetramethyl-8-ethyl-15,19-epoxy-3H-pyrido[2,1-c][1,4]oxaazacyclotricosine-1,7,20,21(4H,23H)-tetrone [Compound 2] | effective |
